Experimental data from patent publication US20020040011A1, “Naphthoquinone compositions and uses thereof” (priority 2000, published 2002).

Tested on: murine fibrosarcomas (RIF-1 cells)
Experiment: Chemopotentiation of cisplatin by menadione: tumor growth delay of RIF-1 fibrosarcomas in C3H mice
Assay type: in vivo
Conditions: for Median (TVQT) / TVQT ± S.E. (mean tumor volume quadrupling time) / TVQT/CTVQT (ratio of treated over untreated control): intradermal RIF-1 tumors, female C3H mice; for Median (TVQT) / TVQT ± S.E. (mean tumor volume quadrupling time) / TVQT/CTVQT (ratio of treated over untreated control) / Delay: i.p., menadione 10 mg/kg, cisplatin 4 mg/kg, combination: menadione 30 min before cisplatin; for Delay: median treated minus median control, RIF-1 tumors, C3H mice
Description: Transplantable experimental murine fibrosarcomas (2×10^5 RIF-1 cells) were grown intradermally in the flanks of 3 month old female C3H mice (Charles River, Holister, Calif.). When the tumors reached a volume of approximately 100 mm^3, the mice were randomly assigned to each experimental group (4 mice per group). The experimental compositions were prepared as described in Table 1. Menadione was obtained from Sigma Chemical Co. (St. Louis, Mo.) and was made to the appropriate concentration in DMSO. Cisplatin (David Bull Laboratories- Mulgrave, Australia, lot. 5201844x) was made to the appropriate concentration in water for injection. The compositions were injected systemically (i.e., intraperitoneally, i.p.), in a volume of 100 microliters. For the treatment of group 3, menadione was injected 30 minutes prior to the injection of cisplatin. After treatment, the growth of the tumors was monitored three times per week by caliper measurements of three perpendicular diameters of the tumor and calculation of tumor volume from the formula: V=π/6×D1×D2×D3, where D1-3 are the diameters in mm along the three different perpendicular axes. The tumors were followed until they reached a size of four times their day zero treatment volume (TVQT), or up to 30 days after treatment, whichever came first. The data is expressed as the “tumor volume quadrupling time” (TVQT) mean and as the “delay.” Mean TVQT is the mean days required for individual tumors to grow to four times the tumor volume at the initial treatment day. The “delay” is the median of days required for a tumor to grow to four times the mean size of the treated group, minus the median of days required to grow to four times the mean size of the control group. The data is also expressed as the ratio of the tumor volume quadrupling time of the treated tumor over the untreated control group ([…]). Increasing values of this ratio indicate increased antitumor response.

Row | SMILES | antiproliferative activity of cisplatin when used with the chemopotentiator menadione (group 3 (menadione 10 mg/kg then cisplatin 4 mg/kg) versus either agent alone, more than additive effect) | Median (TVQT) [days] | TVQT ± S.E. (mean tumor volume quadrupling time) [days] | TVQT/CTVQT (ratio of treated over untreated control) | Delay [days]
1 | N.N.[Cl][Pt][Cl] [Cisplatin, cis-diamminedichloroplatinum II] | enhanced | 8.3 | 8.4 ± 0.3 | 1.3 | 1.44
2 | CC1=CC(=O)c2ccccc2C1=O [Menadione, 2-Methyl-1,4-Naphthoquinone] | – | 7.5 | 7.0 ± 0.5 | 1.0 | 0.61
